# Source: patent publication US20230321101A1, “METHODS AND USES OF HALOFUGINONE” (The Regents of the University of California, priority 2020, published 2023)
# “Also recorded” adds a separate entry of the source. Like-named read-outs stand apart in the source and are kept apart here.
# Key:
# DENV-2 (Dengue) = assay: DENV-2 antiviral immunofluorescence assay in Huh7 cells; type: cell-based
# Method: (§1) Experimental Procedure. The antiviral activity of 8 dilutions of each compound was explored by adding the drug to the assay cells 2 h after infection with the different viruses. Virus and compounds were left on the cells for the entire duration of the experiment (28 h for Zika virus and 24 h for all other viruses). The cytotoxicity of the same range of concentrations of compounds was determined by LDH release assay in the same cell lines.
# (§2) Cell plating. Cells were detached and counted following SOP-RA 003 and SOP-RA 004. Count was recorded in the Cell Count Logbook, Volume 1. For each virus four plates were seeded, two for the antiviral assay and two for the cytotoxicity assay. Cells were seeded in 100 μl/well of complete media at the following densities: • Huh7: 8,000 cells/well (Dengue) • SH-SY5Y: 10,000 cells/wells (Zika) • HeLa Tzmbl: 8,000 cells/well (HIV)
# (§3) Compounds dilutions. The 22.1 mM stocks were further diluted to 1 mM in DMSO by adding 211 μl of DMSO to 10 μl of compound. Three serial dilutions were prepared in different media for different viruses/cells. For each dilution, drugs were prepared at twice the final concentration in 50 μl volume, because they are diluted to the final concentration by an equal volume of virus or media.
# (§4) Infection. Cells were infected in 50 μl of supplemented media/well at the following multiplicity of infection (MOI): • DENV-2, MOI 1 • ZIKV, MOI 5 • HIV, MOI 0.5
# (§5) After removing culture media from cells, 50 μl of virus dilution were added to all wells except Column 11 (uninfected control), where the same volume of supplemented media was added. […]
# (§6) Infectivity readout. […] The primary antibodies were detected with an Alexa-488 conjugate secondary antibody (Life Technologies, A11001), and nuclei were stained with Hoechst. Images were acquired on a CellInsight CX5 high content platform (Thermo Scientific) using a 4× objective, and percentage infection calculated using CellInsight CX5 software (infected cells/total cells×100).
# (§7) Determination of % Inhibition—IF assay. Normalized percentages of inhibition were calculated using the following formula: […]
# ZIKV (Zika virus) = assay: ZIKV antiviral immunofluorescence assay in SH-SY5Y cells; type: cell-based
# Method: as §1, §2, §3, §4, §5, §6, §7
# HIV-1 = HIV-1 antiviral immunofluorescence assay in HeLa Tzmbl cells; type: cell-based; conditions: HeLa Tzmbl
# Method: as §1, §2, §3, §4, §5, §6, §7
# [1] = test system: cell surface heparan sulfate of Hep3B cells; assay: Heparan sulfate presentation by anti-HS mAb 10E4 staining of Hep3B cells; type: cell-based, human; conditions: for effect on halofuginone-induced reduction in heparan sulfate production (10E4 binding): co-incubated with halofuginone
# [2] = test system: recombinant SARS-CoV-2 spike RBD protein binding to Hep3B cells; conditions: for decrease of SARS-CoV-2 RBD binding compared to excipient control (DMSO): 18 h; for effect on halofuginone-induced reduction in spike protein binding: co-incubated with halofuginone
# authentic SARS-CoV-2 = assay: microbe, parasite or virus in culture; type: cell-based
# Vero E6 cells = assay: Cell number of Vero E6 cells treated for 24 h; type: cell-based, African green monkey; conditions: Vero E6, 24 h
# Method: FIG. 32A and FIG. 32B. […] A-B, Measurement of authentic SARS-CoV-2 infection and cell number in Vero E6 cells treated with (A) halofuginone (HF) or (B) the 2R,3S-(+) enantiomer for 24 h. Data shown as mean±S.D.
# [3] = ProSA at 50 μM, halofuginone 500 nM
# [4] = Severe acute respiratory syndrome coronavirus 2, Vero C1008, read-out: IC50 of SARS-CoV-2 infection
SMILES,effect on heparan sulfate presentation (10E4 binding) [1],effect on spike (RBD) protein binding [2],effect on authentic SARS-CoV-2 infection (authentic SARS-CoV-2; Vero E6),also measured
CC(C)(C)OC(=O)N1CCCC(O)[C@H]1CC(=O)Cn1cnc2cc(Br)c(Cl)cc2c1=O (stereo partly shown),–,–,–,antiviral activity against DENV-2 (DENV-2 (Dengue); Huh7): did not display antiviral activity; antiviral activity against ZIKV (ZIKV (Zika virus)): did not display antiviral activity; antiviral activity against HIV-1 (HIV-1): did not display antiviral activity
O=C(COc1ccc(Cl)cc1)NC1CCC(NC(=O)COc2ccc(Cl)cc2)CC1 (stereo not shown) [ISRIB],Neither PERKi nor ISRIB affected 10E4 or spike RBD binding,Neither PERKi nor ISRIB affected 10E4 or spike RBD binding,–,effect on halofuginone-induced reduction in heparan sulfate production (10E4 binding) [1]: unable to attenuate the halofuginone-induced reduction in heparan sulfate production; also recorded: nor ISRIB reversed the halofuginone induced reduction in 10E4 or spike protein binding
"Nc1ncnc2c1ncn2[C@@H]1O[C@H](COS(=O)(=O)NC(=O)[C@@H]2CCCN2)[C@@H](O)[C@H]1O [ProSA, prolyl-sulfamoyl adenosine]",–,–,inhibited authentic SARS-CoV-2 infection of Vero E6 cells; also recorded: inhibit infection by authentic SARS-CoV-2 when provided at higher doses,"effect on heparan sulfate presentation ([1]; 1 μM): unable to inhibit heparan sulfate inhibition and Spike protein binding; effect on HS presentation (mAb 10E4 stain) [1, 3]: prevented HS presentation and spike RBD binding to similar levels as treatment with halofuginone; effect on Spike protein binding ([2]; 1 μM): unable to inhibit heparan sulfate inhibition and Spike protein binding; effect on spike RBD binding [2, 3]: prevented HS presentation and spike RBD binding to similar levels as treatment with halofuginone"
O=C(/C=C/c1cccc(S(=O)(=O)Nc2ccccc2)c1)NO [Belinostat],increased 10E4 staining,reduced spike protein by more than two-fold,–,decrease of SARS-CoV-2 RBD binding compared to excipient control (DMSO) ([2]; 5 μM): ~50%
c1nn(C2CCOCC2)cc1Nc1ncc2nnn(-c3ccc4cn[nH]c4c3)c2n1 [GCN2-IN-1],reduced in heparan sulfate production; also recorded: reduced 10E4 and spike RBD binding almost to the same extent as halofuginone,–,–,effect on halofuginone-induced reduction in heparan sulfate production (10E4 binding) [1]: reversed the halofuginone induced reduction in 10E4 or spike protein binding; effect on halofuginone-induced reduction in spike protein binding [2]: reversed the halofuginone induced reduction in 10E4 or spike protein binding
Nc1ncnc2c1c(I)cn2[C@@H]1O[C@H](CO)[C@@H](O)[C@H]1O [5-Iodotubercidin],reduced heparan sulfate presentation,–,–,–
"Nc1ncnc2c1ncn2C1OC(COS(=O)(=O)NC(=O)[C@@H](N)CO)[C@@H](O)[C@H]1O (stereo partly shown) [SerSA, seryl-sulfamoyl adenosine]",–,Neither of these AARS inhibitors were able to significantly attenuate,Neither of these AARS inhibitors were able to significantly attenuate viral replication,–
"O=C(C[C@H]1NCCC[C@@H]1O)Cn1cnc2cc(Br)c(Cl)cc2c1=O [2R,3S-(+) halofuginone]",inhibited HS production,inhibited HS production and authentic SARS-CoV-2 spike RBD protein binding,inhibit SARS-CoV-2 infection,"IC50 (authentic SARS-CoV-2; Vero E6, read-out: IC50 of SARS-CoV-2 infectivity, enantiomer comparison): 0.012 µM; cell proliferation (cell number) (Vero E6 cells): inhibit SARS-CoV-2 infection and cell proliferation"
CC(C)(C)OC(=O)N1CCC[C@H](O)[C@H]1CC(=O)Cn1cnc2cc(Br)c(Cl)cc2c1=O [MAZ1310],had no effect,had no effect,did not have any activity,–
CCN(CC)CCCC(C)Nc1ccnc2cc(Cl)ccc12 (stereo not shown) [chloroquine],–,–,–,IC50 (authentic SARS-CoV-2; [4]): 1.9 µM
CNC(=O)Nc1ccc2c(c1)CC[C@@]21OC(=O)N(CC(=O)N(Cc2ccc(F)cc2)[C@@H](C)C(F)(F)F)C1=O [A-485],reduced heparan sulfate presentation,–,–,–
C[C@@H]1C[C@H](C)C[C@H](C)[C@@H](O)CC(=O)O[C@H]([C@@H]2CCC[C@H]2C(=O)O)C/C=C/C=C(/C#N)[C@H](O)[C@@H](C)C1 [borrelidin],Inhibits HS production,Neither of these AARS inhibitors were able to significantly attenuate,Neither of these AARS inhibitors were able to significantly attenuate viral replication,effect on spike (RBD) protein binding ([2]; listed as Borrelidin): not SARS-CoV-2 Spike RBD protein binding
Nc1ncn([C@@H]2O[C@H](CO)[C@@H](O)[C@H]2O)c(=O)n1 [5-Azacytidine],reduced heparan sulfate presentation,–,–,–
CCC(CC)COC(=O)[C@H](C)N[P@](=O)(OC[C@H]1O[C@@](C#N)(c2ccc3c(N)ncnn23)[C@H](O)[C@@H]1O)Oc1ccccc1 [Remdesivir],–,–,–,IC50 (authentic SARS-CoV-2; [4]): 8 µM
COc1cc2c(NC3CCN(C(C)C)CC3)nc(C3CCCCC3)nc2cc1OCCCN1CCCC1 [UNC0638],increased the total amount of heparan sulfate,–,–,–
Nc1ncn([C@H]2C[C@H](O)[C@@H](CO)O2)c(=O)n1 [5-Azadeoxycitidine],reduced heparan sulfate presentation,–,–,–
C/C=C1\NC(=O)[C@H]2CSSCC/C=C/[C@H](CC(=O)N[C@H](C(C)C)C(=O)N2)OC(=O)[C@H](C(C)C)NC1=O [Romidepsin],–,–,–,decrease of SARS-CoV-2 RBD binding compared to excipient control (DMSO) ([2]; 1 μM): ~50%
Cn1cc(-c2ccc3c(c2)CCN3C(=O)Cc2cccc(C(F)(F)F)c2)c2c(N)ncnc21 [GSK2606414],Neither PERKi nor ISRIB affected 10E4 or spike RBD binding,Neither PERKi nor ISRIB affected 10E4 or spike RBD binding,–,effect on halofuginone-induced reduction in heparan sulfate production (10E4 binding) [1]: reversed the halofuginone induced reduction in 10E4 or spike protein binding; effect on halofuginone-induced reduction in heparan sulfate production (10E4 binding) ([1]; listed as PERKi): unable to attenuate the halofuginone-induced reduction in heparan sulfate production; effect on halofuginone-induced reduction in spike protein binding [2]: reversed the halofuginone induced reduction in 10E4 or spike protein binding; effect on halofuginone-induced reduction in spike protein binding ([2]; listed as PERKi): unable to attenuate the halofuginone-induced reduction in heparan sulfate production and Spike protein binding
"O=C(CC1NCCCC1O)Cn1cnc2cc(Br)c(Cl)cc2c1=O (single isomer, unassigned) [2S,3R-(−)enantiomer]",–,–,No inhibition was observed,–
O=c1c2cc(Cl)c(Br)cc2ncn1C[C@H](O)C[C@H]1NCCC[C@@H]1O [halofuginol],significantly decreased 10E4 and spike RBD binding,significantly decreased 10E4 and spike RBD binding,inhibited authentic SARS-CoV-2 infection of Vero E6 cells; also recorded: inhibit infection by authentic SARS-CoV-2 when provided at higher doses,"inhibition of DENV-2 (DENV-2 (Dengue); Huh7, highest concentration tested (1000 nM)): ~60%; antiviral activity against ZIKV (ZIKV (Zika virus)): antiviral activity only against HIV-1; EC50 (HIV-1; MOI 0.5, drug added 2 h after infection, 24 h, read-out: EC50 HIV-1): 0.344 µM"
